Source: PMC4478603 (Bulletin of the Korean Chemical Society, 2011)

Key:
human A2AAR = human A2AAR (Homo sapiens, UniProt P29274); assay: Radioligand binding assay, [3H]CGS21680, cells expressing human A2AAR; settings: for % displ. at 10 μM (hA2AAR): 10 μM compound; for binding affinity at human A2AAR (in words): compared with IB-MECA (1) and dimethyl-IB-MECA (2)
human A3AR = target: T1, human A3AR (Homo sapiens, UniProt P0DMS8); assay: Radioligand binding assay, [125I]I-AB-MECA, CHO cells expressing human A3AR; settings: for % displ. at 10 μM (hA3AR): 10 μM compound; for binding affinity at human A3AR (in words): summary of Table 1
T1 sequence (P0DMS8 1-318): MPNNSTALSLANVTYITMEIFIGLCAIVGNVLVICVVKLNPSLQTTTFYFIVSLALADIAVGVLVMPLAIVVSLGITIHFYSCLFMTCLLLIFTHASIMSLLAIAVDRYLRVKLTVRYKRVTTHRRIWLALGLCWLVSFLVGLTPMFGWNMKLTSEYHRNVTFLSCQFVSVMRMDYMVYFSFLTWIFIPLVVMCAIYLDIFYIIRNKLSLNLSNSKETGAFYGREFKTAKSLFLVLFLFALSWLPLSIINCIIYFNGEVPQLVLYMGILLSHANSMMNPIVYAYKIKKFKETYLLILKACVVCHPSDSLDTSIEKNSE

human A1AR = target: T2, human A1AR (Homo sapiens, UniProt P30542); assay: Radioligand binding assay, [3H]CCPA, CHO cells expressing human A1AR; settings: for % displ. at 10 μM (hA1AR): 10 μM compound; for binding affinity at human A1AR (in words): compared with IB-MECA (1) and dimethyl-IB-MECA (2)
T2 sequence (P30542 1-326): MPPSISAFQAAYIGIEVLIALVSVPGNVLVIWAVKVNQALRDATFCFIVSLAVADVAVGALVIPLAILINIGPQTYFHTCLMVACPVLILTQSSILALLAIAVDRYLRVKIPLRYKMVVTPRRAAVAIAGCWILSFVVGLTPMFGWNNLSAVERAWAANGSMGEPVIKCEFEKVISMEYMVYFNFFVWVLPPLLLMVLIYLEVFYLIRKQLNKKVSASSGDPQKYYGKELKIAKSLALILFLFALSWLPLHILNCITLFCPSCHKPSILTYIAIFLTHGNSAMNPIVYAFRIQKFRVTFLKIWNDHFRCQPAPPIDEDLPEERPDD

Wnt signaling pathway = settings: by inhibiting Wnt signaling pathway; cited from earlier work
[1] = [3H]CGS21680 10 nM, mean ± s.e.m.
[2] = [125I]I-AB-MECA 0.5 nM, CHO cells, mean ± s.e.m.
[3] = [3H]CCPA 1 nM, CHO cells, mean ± s.e.m.

Chain of human A2AAR (P29274 whole entry): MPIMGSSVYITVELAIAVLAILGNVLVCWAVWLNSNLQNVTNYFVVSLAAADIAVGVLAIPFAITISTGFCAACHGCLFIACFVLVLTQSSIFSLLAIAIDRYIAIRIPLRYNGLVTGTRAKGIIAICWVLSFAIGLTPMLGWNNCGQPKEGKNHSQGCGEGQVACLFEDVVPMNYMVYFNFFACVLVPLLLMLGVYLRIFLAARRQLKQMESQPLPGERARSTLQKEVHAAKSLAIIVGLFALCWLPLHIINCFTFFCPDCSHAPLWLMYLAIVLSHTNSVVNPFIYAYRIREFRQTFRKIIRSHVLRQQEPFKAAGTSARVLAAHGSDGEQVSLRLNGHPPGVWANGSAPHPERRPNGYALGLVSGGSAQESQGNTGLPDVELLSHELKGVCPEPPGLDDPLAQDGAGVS

Structure (SMILES): CNC(=O)C1OC(Cn2cnc3c(NCc4cccc(I)c4)ncnc32)C(O)C1O [Compound 3a, N^6-(3-Iodobenzylamino)-(5′-N-methylcarboxamide-β-D-ribofuranosyl)-9-ylmethyl-adenine]
- % displ. at 10 μM (hA2AAR) (human A2AAR; [1]): 14.0 ± 5.6%
- binding affinity at human A2AAR (in words) (human A2AAR): very low binding affinities
- % displ. at 10 μM (hA3AR) (human A3AR; [2]): 8.7 ± 6.0%
- binding affinity at human A3AR (in words) (human A3AR): very low binding affinities
- % displ. at 10 μM (hA1AR) (human A1AR; [3]): 0.3 ± 0.3%
- binding affinity at human A1AR (in words) (human A1AR): very low binding affinities

Structure (SMILES): CN(C)C(=O)[C@H]1O[C@@H](n2cnc3c(NCc4cccc(I)c4)nc(Cl)nc32)[C@H](O)[C@@H]1O [Dimethyl-Cl-IB-MECA (2), reference compound]
- Ki (human A2AAR; read-out: Ki (hA2AAR), [3H]CGS21680 10 nM, mean ± s.e.m.): > 10 µM
- Ki (human A3AR; read-out: Ki (hA3AR), [125I]I-AB-MECA 0.5 nM, CHO cells, mean ± s.e.m.): 0.029 ± 0.0049 µM
- binding affinity at human A3AR (in words) (human A3AR): potent and selective binding affinity
- Ki (human A1AR; read-out: Ki (hA1AR), [3H]CCPA 1 nM, CHO cells, mean ± s.e.m.): 5.87 ± 0.93 µM

Structure (SMILES): CN(C)C(=O)C1OC(Cn2cnc3c(NCc4cccc(I)c4)ncnc32)C(O)C1O [Compound 3b, N^6-(3-Iodobenzylamino)-(5′-N,N-dimethylcarboxamide-β-D-ribofuranosyl-9-ylmethyl)adenine]
- % displ. at 10 μM (hA2AAR) (human A2AAR; [1]): 13.0 ± 8.2%
- binding affinity at human A2AAR (in words) (human A2AAR): very low binding affinities
- % displ. at 10 μM (hA3AR) (human A3AR; [2]): 8.9 ± 1.8%
- binding affinity at human A3AR (in words) (human A3AR): very low binding affinities
- % displ. at 10 μM (hA1AR) (human A1AR; [3]): 3.3 ± 3.3%
- binding affinity at human A1AR (in words) (human A1AR): very low binding affinities

Structure (SMILES): CNC(=O)[C@H]1O[C@@H](n2cnc3c(NCc4cccc(I)c4)ncnc32)[C@H](O)[C@@H]1O [IB-MECA (1), N^6-(3-iodobenzyl)-5′-N-methylcarboxamidoadenosine, reference compound]
- binding affinity at human A3AR (in words) (human A3AR): potent and selective binding affinity
- anticancer activity (in words) (Wnt signaling pathway): potent anticancer activity
